Test [1] has as its target T1, human progesterone receptor B (Homo sapiens, UniProt P06401).
T1 construct: expressed in transfected cells; host or cells: SK-N-MC human neuroblastoma cells, stably transfected
T1 sequence (P06401 1-933): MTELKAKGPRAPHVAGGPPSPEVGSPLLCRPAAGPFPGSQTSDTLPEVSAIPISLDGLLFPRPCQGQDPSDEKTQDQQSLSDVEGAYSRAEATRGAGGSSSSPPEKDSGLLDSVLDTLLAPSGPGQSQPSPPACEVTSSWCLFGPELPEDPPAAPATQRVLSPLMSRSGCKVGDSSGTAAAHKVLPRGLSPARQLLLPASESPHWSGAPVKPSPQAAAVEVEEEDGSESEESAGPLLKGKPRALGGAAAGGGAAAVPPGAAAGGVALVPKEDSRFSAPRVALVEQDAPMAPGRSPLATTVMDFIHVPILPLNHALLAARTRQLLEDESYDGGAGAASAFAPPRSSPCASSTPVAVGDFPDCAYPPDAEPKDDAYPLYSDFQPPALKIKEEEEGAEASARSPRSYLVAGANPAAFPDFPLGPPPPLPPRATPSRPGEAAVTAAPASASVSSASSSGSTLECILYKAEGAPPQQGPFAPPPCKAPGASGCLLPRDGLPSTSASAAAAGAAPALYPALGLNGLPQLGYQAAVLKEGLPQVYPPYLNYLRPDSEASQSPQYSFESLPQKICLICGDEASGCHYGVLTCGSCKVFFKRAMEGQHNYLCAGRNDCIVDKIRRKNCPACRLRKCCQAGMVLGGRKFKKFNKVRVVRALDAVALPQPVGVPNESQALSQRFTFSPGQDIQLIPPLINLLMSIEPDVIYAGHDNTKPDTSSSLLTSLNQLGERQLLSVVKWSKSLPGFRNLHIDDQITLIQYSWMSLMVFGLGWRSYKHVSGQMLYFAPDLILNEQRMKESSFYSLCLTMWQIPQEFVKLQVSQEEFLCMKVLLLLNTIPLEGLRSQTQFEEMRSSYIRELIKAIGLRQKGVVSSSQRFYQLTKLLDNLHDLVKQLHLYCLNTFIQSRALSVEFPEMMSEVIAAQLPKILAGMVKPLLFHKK
Nature of the test: Progesterone-receptor-antagonistic action in stably transfected SK-N-MC cells, MTV-LUC reporter (PR-B). The format is cell-based. Particulars: antagonistic potency vs 0.1 nmol/l promegestone, 24 hours, luciferase. On the procedure:
Progesterone-Receptor-Antagonistic Action in Stable Transfectants of Human Neuroblastoma Cells (SK-N-MC Cells) with the Human Progesterone A or Progesterone B Receptor and an MTV-LUC Reporter Construct
SK-N-MC cells (human neuroblastoma cells) that have been stably transfected with plasmids that express the human progesterone receptor B (pRChPR-B-neo) or the human progesterone receptor A (pRChPR-A-neo) and a reporter construct (pMMTV-LUC), were incubated for 24 hours either in the absence (negative control) or in the presence of increasing amounts of the particular test compound (0.01 nmol/l, 0.1 nmol/l, 1 nmol/l, 10 nmol/l, 100 nmol/l and 1 μmol/l), to determine the agonistic efficacy. As positive control of reporter gene induction, the cells were treated with the synthetic gestagen promegestone (0.01 nmol/l, 0.1 nmol/l, 1 nmol/l, 10 nmol/l, 100 nmol/l and 1 μmol/l). For determination of the antagonistic activity, the cells were treated with 0.1 nmol/l promegestone and additionally with increasing amounts of the particular test compound (0.01 nmol/l, 0.1 nmol/l, 1 nmol/l, 10 nmol/l, 100 nmol/l and 1 μmol/l). The activity of the reporter gene LUC (LUC=luciferase) was determined in the cell lysates and was measured as RLU (relative light units). All measured values are given as % efficacy and as EC50 or IC50 concentrations.

For test [2], the target named is T2, human progesterone receptor A (Homo sapiens, UniProt P06401).
T2 construct: expressed in transfected cells; host or cells: SK-N-MC human neuroblastoma cells, stably transfected
T2 sequence (P06401 1-769 isoform P06401-2): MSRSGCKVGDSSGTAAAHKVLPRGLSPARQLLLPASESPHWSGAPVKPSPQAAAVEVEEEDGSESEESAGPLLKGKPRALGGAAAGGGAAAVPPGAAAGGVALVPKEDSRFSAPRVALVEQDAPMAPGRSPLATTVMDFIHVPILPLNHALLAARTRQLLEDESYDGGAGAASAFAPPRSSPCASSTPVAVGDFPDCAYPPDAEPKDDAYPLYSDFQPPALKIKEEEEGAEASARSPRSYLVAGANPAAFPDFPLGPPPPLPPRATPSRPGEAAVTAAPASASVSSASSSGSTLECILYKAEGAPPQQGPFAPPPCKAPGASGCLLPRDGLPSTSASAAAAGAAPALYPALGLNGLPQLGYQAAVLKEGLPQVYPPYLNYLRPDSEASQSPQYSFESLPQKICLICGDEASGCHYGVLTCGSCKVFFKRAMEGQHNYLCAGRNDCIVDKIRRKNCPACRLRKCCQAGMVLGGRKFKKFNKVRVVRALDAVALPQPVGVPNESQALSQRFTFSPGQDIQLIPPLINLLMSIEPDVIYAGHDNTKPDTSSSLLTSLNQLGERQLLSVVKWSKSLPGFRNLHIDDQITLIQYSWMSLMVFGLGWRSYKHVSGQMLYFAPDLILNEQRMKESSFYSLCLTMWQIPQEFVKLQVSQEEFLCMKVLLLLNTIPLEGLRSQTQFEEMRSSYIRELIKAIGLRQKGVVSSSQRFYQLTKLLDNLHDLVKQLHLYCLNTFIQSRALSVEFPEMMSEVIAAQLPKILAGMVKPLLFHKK
As to the kind of experiment: Progesterone-receptor-antagonistic action in stably transfected SK-N-MC cells, MTV-LUC reporter (PR-A). To be noted: antagonistic potency vs 0.1 nmol/l promegestone, 24 hours, luciferase. The format is cell-based. The method in brief:
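SK-N-MC neuroblastoma cells stably expressing human PR-B or PR-A plus MMTV-LUC reporter, treated 24 h with 0.1 nmol/l promegestone plus test compound at 0.01 nmol/l–1 μmol/l. Luciferase in lysates read as RLU; values as % efficacy and IC50.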

A word on the IC50: it is the point on the concentration scale where inhibition reaches its midpoint. Higher therefore signals weaker potency in that assay. In the case of `CN(C)CCNC(=O)c1ccc([C@H]2C[C@@]3(C)[C@@H](CC[C@@]3(O)C(F)(F)C(F)(F)F)[C@@H]3CCC4=CC(=O)CCC4=C32)cc1` [Example 7, N-[2-(dimethylamino)ethyl]-4-[(11β,17β)-17-hydroxy-3-oxo-17-(pentafluoroethyl)estra-4,9-dien-11-yl]benzamide], the IC50 is 30 nM in test [1] and 54 nM in test [2].
Taken in the same sequence, the figures for `CN(C)CCCNC(=O)c1ccc([C@H]2C[C@@]3(C)[C@@H](CC[C@@]3(O)C(F)(F)C(F)(F)F)[C@@H]3CCC4=CC(=O)CCC4=C32)cc1` [Example 8, N-[3-(dimethylamino)propyl]-4-[(11β,17β)-17-hydroxy-3-oxo-17-(pentafluoroethyl)estra-4,9-dien-11-yl]benzamide] were 33 nM and 47 nM.
Taken in the same sequence, the figures for `COC(=O)C1CCN(C(=O)c2ccc([C@H]3C[C@@]4(C)[C@@H](CC[C@@]4(O)C(F)(F)C(F)(F)F)[C@@H]4CCC5=CC(=O)CCC5=C43)cc2)CC1` [Example 6, methyl-1-{4-[(11β,17β)-17-hydroxy-3-oxo-17-(pentafluoroethyl)estra-4,9-dien-11-yl]benzoyl}piperidine-4-carboxylate] were 11 nM and 9.1 nM.
Turning to `C[C@]12C[C@H](c3ccc(C(=O)N4CCCCC4)cc3)C3=C4CCC(=O)C=C4CC[C@H]3[C@@H]1CC[C@@]2(O)C(F)(F)C(F)(F)F` [Example 5, (11β,17β)-17-hydroxy-17-(pentafluoroethyl)-11-[4-(piperidin-1-ylcarbonyl)phenyl]estra-4,9-dien-3-one], the values for the IC50 in test [1] and in test [2] were 5 nM and 4.7 nM, respectively.
For `COC(=O)c1ccccc1NC(=O)c1ccc([C@H]2C[C@@]3(C)[C@@H](CC[C@@]3(O)C(F)(F)C(F)(F)F)[C@@H]3CCC4=CC(=O)CCC4=C32)cc1` [Example 10, methyl-2-({4-[(11β,17β)-17-hydroxy-3-oxo-17-(pentafluoroethyl)estra-4,9-dien-11-yl]benzoyl}amino)benzoate] the same measures were 1 nM and 0.7 nM.
With `CN(C)CCN(C)C(=O)c1ccc([C@H]2C[C@@]3(C)[C@@H](CC[C@@]3(O)C(F)(F)C(F)(F)F)[C@@H]3CCC4=CC(=O)CCC4=C32)cc1` [Example 9, N-[2-(dimethylamino)ethyl]-4-[(11β,17β)-17-hydroxy-3-oxo-17-(pentafluoroethyl)estra-4,9-dien-11-yl]-N-methylbenzamide], the IC50 amounted to 18 nM in test [1] and 23 nM in test [2].
In the case of `CN(C)C(=O)c1ccc([C@H]2C[C@@]3(C)[C@@H](CC[C@@]3(O)C(F)(F)C(F)(F)F)[C@@H]3CCC4=CC(=O)CCC4=C32)cc1` [Example 2, 4-[(11β,17β)-17-Hydroxy-3-oxo-17-(pentafluoroethyl)estra-4,9-dien-11-yl]-N,N-dimethylbenzamide], the figures for the IC50 in test [1] and in test [2] were 1.2 nM and 2.3 nM, respectively.
`C[C@]12C[C@H](c3ccc(C(=O)N4CCNCC4)cc3)C3=C4CCC(=O)C=C4CC[C@H]3[C@@H]1CC[C@@]2(O)C(F)(F)C(F)(F)F` [Example 73, (11β,17β)-17-Hydroxy-17-(pentafluoroethyl)-11-[4-(piperazin-1-ylcarbonyl)phenyl]estra-4,9-dien-3-one]: the figures for the IC50 in test [1] and in test [2] were 120 nM and 47 nM, respectively.
For `CC(C)(C)OC(=O)N1CCN(C(=O)c2ccc([C@H]3C[C@@]4(C)[C@@H](CC[C@@]4(O)C(F)(F)C(F)(F)F)[C@@H]4CCC5=CC(=O)CCC5=C43)cc2)CC1` [Example 4, tert-butyl-4-{4-[(11β,17β)-17-hydroxy-3-oxo-17-(pentafluoroethyl)estra-4,9-dien-11-yl]benzoyl}piperazine-1-carboxylate], the IC50 in test [1] is 1.6 nM; in test [2], 0.62 nM.
For `CC(=O)N1CCN(C(=O)c2ccc([C@H]3C[C@@]4(C)[C@@H](CC[C@@]4(O)C(F)(F)C(F)(F)F)[C@@H]4CCC5=CC(=O)CCC5=C43)cc2)CC1` [Example 74, (11β,17β)-11-{4-[(4-Acetylpiperazin-1-yl)carbonyl]phenyl}-17-hydroxy-17-(pentafluoroethyl)estra-4,9-dien-3-one] the same measures were 12 nM and 6.7 nM.
With `CN1CCN(C(=O)c2ccc([C@H]3C[C@@]4(C)[C@@H](CC[C@@]4(O)C(F)(F)C(F)(F)F)[C@@H]4CCC5=CC(=O)CCC5=C43)cc2)CC1` [Example 3, (11β,17β)-17-hydroxy-11-{4-[(4-methylpiperazin-1-yl)carbonyl]phenyl}-17-(pentafluoroethyl)estra-4,9-dien-3-one], the results for the IC50 in test [1] and in test [2] were 44 nM and 24 nM, respectively.
Taken in the same sequence, the figures for `C[C@]12C[C@H](c3ccc(C(=O)N4CCC(C(=O)O)CC4)cc3)C3=C4CCC(=O)C=C4CC[C@H]3[C@@H]1CC[C@@]2(O)C(F)(F)C(F)(F)F` [Example 75, 1-{4-[(11β,17β)-17-Hydroxy-3-oxo-17-(pentafluoroethyl)estra-4,9-dien-11-yl]benzoyl}piperidine-4-carboxylic acid] were 10 nM and 23 nM.

These data come from US9109004B2, “Progesterone receptor antagonists” (Bayer Intellectual Property GmbH, priority 2010, dated 2015).
